From patent publication US20260131009A1, “BIFUNCTIONAL PI3K-ALPHA INHIBITORS AND USES THEREOF” (Relay Therapeutics, Inc., priority 2021, published 2026) come the findings set out here.

pIC50: −log10 of the molar value. A value given as a limit tells only on which side of the number the result lay.

One experiment concerns the target PI3Kα (Homo sapiens, UniProt P42336, H1047R). In words: ADP-Glo IC50 assay. Format: biochemical. Conditions: class symbols; key not given.
Another experiment concerns MCF10A. The experiment in a line: MCF10A IC50 assay. The format is cell-based. Conditions: Homo sapiens, MCF-10A; class symbols; key not given. A digest of the protocol:
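MCF10A cells overexpressing hotspot PIK3CA mutations were seeded at 5,000 per well in supplemented DMEM/F12 and adhered overnight (37 °C, 5% CO₂). Compounds were added acoustically as 12-dose 1:3 series, in duplicate, for 2 hours. Cells were lysed 60 min, then incubated 4 hours at room temperature with CisBio phospho-AKT (Ser473) HTRF antibodies and read on an Envision 2105. IC₅₀ for AKT phosphorylation came from Genedata software and was reported as binned categories.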

Sequence of PI3Kα (P42336 whole entry H1047R): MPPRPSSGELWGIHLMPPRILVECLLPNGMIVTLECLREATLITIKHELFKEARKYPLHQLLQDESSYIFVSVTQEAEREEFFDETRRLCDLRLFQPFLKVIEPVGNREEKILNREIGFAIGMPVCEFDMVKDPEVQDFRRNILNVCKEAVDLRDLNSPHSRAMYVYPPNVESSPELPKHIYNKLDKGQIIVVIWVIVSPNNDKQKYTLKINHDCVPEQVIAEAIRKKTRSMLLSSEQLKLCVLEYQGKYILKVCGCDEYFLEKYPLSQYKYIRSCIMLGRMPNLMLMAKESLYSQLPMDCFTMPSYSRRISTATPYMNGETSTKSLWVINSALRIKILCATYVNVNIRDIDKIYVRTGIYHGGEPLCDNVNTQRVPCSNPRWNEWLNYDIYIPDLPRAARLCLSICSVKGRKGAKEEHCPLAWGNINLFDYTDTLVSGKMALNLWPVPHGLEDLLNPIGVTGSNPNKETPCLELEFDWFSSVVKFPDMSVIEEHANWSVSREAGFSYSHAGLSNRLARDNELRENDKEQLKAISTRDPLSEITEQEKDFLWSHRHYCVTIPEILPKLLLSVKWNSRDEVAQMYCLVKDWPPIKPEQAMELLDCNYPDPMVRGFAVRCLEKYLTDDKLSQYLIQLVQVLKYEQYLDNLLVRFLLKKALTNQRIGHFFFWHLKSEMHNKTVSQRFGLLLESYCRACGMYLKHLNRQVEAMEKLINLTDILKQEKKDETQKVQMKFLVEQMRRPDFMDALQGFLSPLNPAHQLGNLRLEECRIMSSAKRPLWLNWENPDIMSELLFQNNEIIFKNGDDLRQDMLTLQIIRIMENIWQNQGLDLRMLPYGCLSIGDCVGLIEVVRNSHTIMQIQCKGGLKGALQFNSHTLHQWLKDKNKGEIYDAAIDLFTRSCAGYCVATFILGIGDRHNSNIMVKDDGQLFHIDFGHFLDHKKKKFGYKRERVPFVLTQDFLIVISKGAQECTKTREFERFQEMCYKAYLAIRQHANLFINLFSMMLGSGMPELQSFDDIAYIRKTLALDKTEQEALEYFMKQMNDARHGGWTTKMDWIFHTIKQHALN
Sequence of PI3Kα (P27986 whole entry partner): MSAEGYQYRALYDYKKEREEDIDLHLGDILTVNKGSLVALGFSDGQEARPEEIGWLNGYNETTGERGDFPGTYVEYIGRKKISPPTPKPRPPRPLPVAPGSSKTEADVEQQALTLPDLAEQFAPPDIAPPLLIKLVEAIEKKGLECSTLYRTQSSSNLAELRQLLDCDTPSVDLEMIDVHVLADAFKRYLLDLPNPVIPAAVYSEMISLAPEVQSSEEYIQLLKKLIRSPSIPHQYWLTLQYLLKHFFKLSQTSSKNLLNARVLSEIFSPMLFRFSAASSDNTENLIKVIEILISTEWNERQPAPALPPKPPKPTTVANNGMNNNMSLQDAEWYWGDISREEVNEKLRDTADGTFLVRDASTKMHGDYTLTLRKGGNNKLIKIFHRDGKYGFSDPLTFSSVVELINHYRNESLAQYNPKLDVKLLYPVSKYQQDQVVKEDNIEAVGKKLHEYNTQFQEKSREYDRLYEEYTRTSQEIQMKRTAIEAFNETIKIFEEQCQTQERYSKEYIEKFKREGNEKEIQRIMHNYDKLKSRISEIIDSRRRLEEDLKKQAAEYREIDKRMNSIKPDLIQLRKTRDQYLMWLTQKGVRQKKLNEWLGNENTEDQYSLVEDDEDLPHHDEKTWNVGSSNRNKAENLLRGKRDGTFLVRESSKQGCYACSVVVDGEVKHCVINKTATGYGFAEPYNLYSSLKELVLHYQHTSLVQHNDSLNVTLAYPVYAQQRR

As to `Cc1ccccc1Nc1ncc(C(=O)NCCCCCCCCCC(=O)N[C@H](C(=O)N2C[C@H](O)C[C@H]2C(=O)N[C@@H](C)c2ccc(-c3scnc3C)cc2)C(C)(C)C)cc1NC(=O)c1csc2ccccc12` [Example 1-7], the pIC50 (commonly the negative decadic logarithm of the IC50, by convention in mol/L) against PI3Kα is 6.30 to 7.00; in the experiment on MCF10A it was 4.44 to 5.00.
In the case of `Cc1ccccc1Nc1ncc(C(=O)NCCCCCNC(=O)c2ccc3c(c2)CN(C2CCC(=O)NC2=O)C3=O)cc1NC(=O)c1csc2ccccc12` (centres unmarked) [Example I-1], the values for the pIC50 at PI3Kα and in the experiment on MCF10A were 6.30 to 7.00 and 4.44 to 5.00, respectively.
In the same order, the values of `Cc1ccccc1Nc1ncc(C(=O)NCCCCCCCCCNC(=O)c2ccc3c(c2)CN(C2CCC(=O)NC2=O)C3=O)cc1NC(=O)c1csc2ccccc12` (centres unmarked) [Example I-2] are 6.00 to 6.30 and 4.44 to 5.00.
Consider `Cc1ccccc1Nc1ncc(C(=O)NCCCCCCCCCC(=O)NCc2ccc3c(c2)CN(C2CCC(=O)NC2=O)C3=O)cc1NC(=O)c1csc2ccccc12` (centres unmarked) [Example I-3], for which the pIC50 was 6.30 to 7.00 on PI3Kα and 4.44 to 5.00 with MCF10A.
In the same order, the values of `Cc1ccccc1Nc1ncc(C(=O)NCCOCCOCCOCCC(=O)N[C@H](C(=O)N2C[C@H](O)C[C@H]2C(=O)N[C@@H](C)c2ccc(-c3scnc3C)cc2)C(C)(C)C)cc1NC(=O)c1csc2ccccc12` [Example I-4] are 5.00 to 6.00 and 4.44 to 5.00.
For `Cc1ccccc1Nc1ncc(C(=O)NCCCCCCCNC(=O)c2ccc3c(c2)CN(C2CCC(=O)NC2=O)C3=O)cc1NC(=O)c1csc2ccccc12` (centres unmarked) [Example I-5] the same measures were 6.30 to 7.00 and 4.44 to 5.00.
With `Cc1ccccc1Nc1ncc(C(=O)NCCCCCCCC(=O)NCc2ccc3c(c2)CN(C2CCC(=O)NC2=O)C3=O)cc1NC(=O)c1csc2ccccc12` (centres unmarked) [Example I-6], the pIC50 at PI3Kα was 6.30 to 7.00; with MCF10A, 4.44 to 5.00.
In the same order, the values of `Cc1ccccc1Nc1ncc(C(=O)NCCCCCCCC(=O)N[C@H](C(=O)N2C[C@H](O)C[C@H]2C(=O)N[C@@H](C)c2ccc(-c3scnc3C)cc2)C(C)(C)C)cc1NC(=O)c1csc2ccccc12` [Example I-8] are 6.30 to 7.00 and 4.44 to 5.00.
For `Cc1ccccc1Nc1ncc(C(=O)NCCCCCC(=O)NCc2ccc3c(c2)CN(C2CCC(=O)NC2=O)C3=O)cc1NC(=O)c1csc2ccccc12` (centres unmarked) [Example I-9] the same measures were 6.30 to 7.00 and 4.44 to 5.00.
For `Cc1ccccc1Nc1ncc(C(=O)NCCCCCCCCCC(=O)N[C@H](C(=O)N2C[C@H](O)C[C@H]2C(=O)NCc2ccc(-c3scnc3C)cc2)C(C)(C)C)cc1NC(=O)c1csc2ccccc12` [Example I-10] the same measures were 6.30 to 7.00 and 4.44 to 5.00.
Consider `Cc1ccccc1Nc1ncc(C(=O)NCCOCCOCCOCCOCCOCCC(=O)N[C@H](C(=O)N2C[C@H](O)C[C@H]2C(=O)N[C@@H](C)c2ccc(-c3scnc3C)cc2)C(C)(C)C)cc1NC(=O)c1csc2ccccc12` [Example I-11], for which the pIC50 against PI3Kα is 5.00 to 6.00; in the experiment on MCF10A it was 4.44 to 5.00.
In the case of `Cc1cc([C@@H](C)Nc2ccccc2C(=O)O)c2oc(N3CCN(C(=O)CCOCCNc4ccc5c(c4)C(=O)N(C4CCC(=O)NC4=O)C5=O)CC3)cc(=O)c2c1` (some centres unmarked) [Example I-144], on PI3Kα, the pIC50 was 5.00 to 6.00.
Still for that read-out and setting: the value for `Cc1cc([C@@H](C)Nc2ccccc2C(=O)O)c2oc(N3CCN(C(=O)CCOCCNc4cccc5c4C(=O)N(C4CCC(=O)NC4=O)C5=O)CC3)cc(=O)c2c1` (some centres unmarked) [Example I-145] was 5.00 to 6.00; that for `Cc1cc([C@@H](C)Nc2ccccc2C(=O)O)c2oc(N3CCN(C(=O)CCCNc4ccc5c(c4)C(=O)N(C4CCC(=O)NC4=O)C5=O)CC3)cc(=O)c2c1` (some centres unmarked) [Example I-146] was 5.00 to 6.00.
On the same count and under the same terms, then `Cc1cc([C@H](C)Nc2ccccc2C(=O)O)c2oc(N3CCN(C(=O)CCCNc4ccc5c(c4)C(=O)N(C4CCC(=O)NC4=O)C5=O)CC3)cc(=O)c2c1` (some centres unmarked) [Example I-147], with 5.00 to 6.00; and `Cc1cc([C@H](C)Nc2ccccc2C(=O)O)c2oc(N3CCN(C(=O)CCOCCNc4cccc5c4C(=O)N(C4CCC(=O)NC4=O)C5=O)CC3)cc(=O)c2c1` (some centres unmarked) [Example I-148], with 5.00 to 6.00; and `Cc1cc([C@@H](C)Nc2ccccc2C(=O)O)c2oc(N3CCN(C(=O)CCC(=O)NCc4ccc5c(c4)C(=O)N(C4CCC(=O)NC4=O)C5)CC3)cc(=O)c2c1` (some centres unmarked) [Example I-149], with 5.00 to 6.00.
Same read-out and setting: then `O=C1CCC(N2Cc3cc(C(=O)NCCCCCCCCNC(=O)c4cc(NC(=O)c5cccc(C(F)(F)F)c5)c5c(c4)C(=O)N[C@@H]5c4cc(F)ccc4Cl)ccc3C2=O)C(=O)N1` (some centres unmarked) [Example I-150], with 5.00 to 6.00; and `O=C1CCC(N2C(=O)c3ccc(NCCOCCOCCOCCOCCOCCOCCOCCOCCOCCOCCOCCOCCNC(=O)c4cc(NC(=O)c5cc(F)cc(C(F)(F)F)c5)c5c(c4)C(=O)N[C@@H]5c4cc(F)ccc4Cl)cc3C2=O)C(=O)N1` (some centres unmarked) [Example I-151], with 5.00 to 6.00; and `O=C1CCC(N2Cc3cc(C(=O)NCCCCCCCCCCNC(=O)c4cc(NC(=O)c5cccc(C(F)(F)F)c5)c5c(c4)C(=O)N[C@H]5c4cc(F)ccc4Cl)ccc3C2=O)C(=O)N1` (some centres unmarked) [Example I-152], with 6.30 to 7.00.
For `O=C1CCC(N2Cc3cc(C(=O)NCCOCCOCCOCCOCCOCCOCCOCCOCCOCCOCCOCCOCCNC(=O)c4cc(NC(=O)c5cc(F)cc(C(F)(F)F)c5)c5c(c4)C(=O)N[C@@H]5c4cc(F)ccc4Cl)ccc3C2=O)C(=O)N1` (some centres unmarked) [Example I-153], the pIC50 at PI3Kα was 5.00 to 6.00.
Same read-out and setting: the value for `O=C1CCC(N2Cc3cc(C(=O)NCCCCCCCCCCNC(=O)c4cc(NC(=O)c5cccc(C(F)(F)F)c5)c5c(c4)C(=O)N[C@@H]5c4cc(F)ccc4Cl)ccc3C2=O)C(=O)N1` (some centres unmarked) [Example I-154] was 5.00 to 6.00; that for `O=C1CCC(N2Cc3cc(C(=O)NCCCCCCCCCNC(=O)c4cc(NC(=O)c5cccc(C(F)(F)F)c5)c5c(c4)C(=O)N[C@@H]5c4cc(F)ccc4Cl)ccc3C2=O)C(=O)N1` (some centres unmarked) [Example I-155] was 5.00 to 6.00.
Regarding `O=C1CCC(N2C(=O)c3ccc(NCCOCCOCCOCCOCCOCCOCCOCCOCCOCCOCCOCCOCCNC(=O)c4cc(NC(=O)c5cc(F)cc(C(F)(F)F)c5)c5c(c4)C(=O)N[C@H]5c4cc(F)ccc4Cl)cc3C2=O)C(=O)N1` (some centres unmarked) [Example I-156], the pIC50 on PI3Kα is > 7.00.
The same measure, in the same setting: then `O=C1CCC(N2Cc3cc(C(=O)NCCOCCOCCOCCOCCOCCOCCOCCOCCOCCOCCOCCOCCNC(=O)c4cc(NC(=O)c5cc(F)cc(C(F)(F)F)c5)c5c(c4)C(=O)N[C@H]5c4cc(F)ccc4Cl)ccc3C2=O)C(=O)N1` (some centres unmarked) [Example I-157], with 6.00 to 6.30; and `O=C1CCC(N2Cc3cc(C(=O)NCCCCCCCCNC(=O)c4cc(NC(=O)c5cccc(C(F)(F)F)c5)c5c(c4)C(=O)N[C@H]5c4cc(F)ccc4Cl)ccc3C2=O)C(=O)N1` (some centres unmarked) [Example I-158], with > 7.00.
Still for that read-out and setting: then `O=C1CCC(N2Cc3cc(C(=O)NCCCCCCCCCNC(=O)c4cc(NC(=O)c5csc6ccccc56)c5c(c4)C(=O)NC5c4cc(F)ccc4Cl)ccc3C2=O)C(=O)N1` (centres unmarked) [Example I-159], with > 7.00.
As for `O=C1CCC(N2Cc3cc(C(=O)NCCCCCCCCCNC(=O)c4cc(NC(=O)c5cccc(F)c5)c5c(c4)C(=O)N[C@H]5c4cc(F)ccc4Cl)ccc3C2=O)C(=O)N1` (some centres unmarked) [Example I-160], the pIC50 against PI3Kα was 6.30 to 7.00.
On the same count and under the same terms, the value for `O=C1CCC(N2Cc3cc(C(=O)NCCCCCCCCCNC(=O)c4cc(NC(=O)c5cccc(F)c5)c5c(c4)C(=O)N[C@@H]5c4cc(F)ccc4Cl)ccc3C2=O)C(=O)N1` (some centres unmarked) [Example I-161] was 5.00 to 6.00.
Compound `O=C1CCC(N2Cc3cc(C(=O)NCCCCCCCCCNC(=O)c4cc(NC(=O)c5cccc(C(F)(F)F)c5)c5c(c4)C(=O)N[C@H]5c4cc(F)ccc4Cl)ccc3C2=O)C(=O)N1` (some centres unmarked) [Example I-162] showed a pIC50 against PI3Kα of 6.00 to 6.30.
